Reference: the NIST ThermoML archive (doi:10.1021/je060475r)
± gives the expanded uncertainty stated by the source.

Key:
[1] = xn = mol fraction of the nth substance listed; conditions: 101 kPa, Liquid
[2] = 101 kPa, Liquid

Cc1ccccc1 [toluene] + O=CN1CCOCC1
[1], x1 = 1
Conditions	mass density [kg/m3]	viscosity [mPa·s]
298.15 K	861.65 ± 1.4	0.553 ± 0.03
303.15 K	857.01 ± 1.4	0.522 ± 0.029
313.15 K	847.63 ± 1.5	0.467 ± 0.026
323.15 K	838.23 ± 1.5	0.421 ± 0.024
333.15 K	828.71 ± 1.6	0.381 ± 0.023
343.15 K	819.86 ± 1.6	0.349 ± 0.021
353.15 K	809.68 ± 1.7	0.321 ± 0.02

c1ccccc1 [benzene]
[2]
Conditions	mass density [kg/m3]	viscosity [mPa·s]
298.15 K	873.57 ± 1.3	0.601 ± 0.032
303.15 K	868.24 ± 1.3	0.562 ± 0.031
313.15 K	857.34 ± 1.4	0.493 ± 0.028
323.15 K	846.59 ± 1.5	0.436 ± 0.025
333.15 K	835.75 ± 1.5	0.389 ± 0.023
343.15 K	824.98 ± 1.6	0.354 ± 0.022

c1ccccc1 [benzene] + O=CN1CCOCC1
[1], x1 = 1
Conditions	mass density [kg/m3]	viscosity [mPa·s]
298.15 K	873.57 ± 1.3	0.601 ± 0.032
303.15 K	868.24 ± 1.3	0.562 ± 0.031
313.15 K	857.34 ± 1.4	0.493 ± 0.028
323.15 K	846.59 ± 1.5	0.436 ± 0.025
333.15 K	835.75 ± 1.5	0.389 ± 0.023
343.15 K	824.98 ± 1.6	0.354 ± 0.022

O=CN1CCOCC1 [N-formylmorpholine]
[2]
Conditions	mass density [kg/m3]	viscosity [mPa·s]
298.15 K	1146.06 ± 1.5	7.955 ± 0.31
303.15 K	1141.7 ± 1.4	6.877 ± 0.28
313.15 K	1132.96 ± 1.4	5.214 ± 0.22
323.15 K	1124.33 ± 1.3	4.08 ± 0.18
333.15 K	1115.63 ± 1.3	3.284 ± 0.15
343.15 K	1107.96 ± 1.2	2.707 ± 0.12
353.15 K	1098.76 ± 1.2	2.274 ± 0.1

O=CN1CCOCC1 [N-formylmorpholine] + c1ccccc1
[1]
Conditions	mass density [kg/m3]	viscosity [mPa·s]
298.15 K, x2 = 0	1146.06 ± 1.5	7.955 ± 0.31
298.15 K, x2 = 0.0977	1124.83 ± 1.3	6.078 ± 0.25
298.15 K, x2 = 0.198	1101.75 ± 1.2	4.597 ± 0.2
298.15 K, x2 = 0.2987	1077.06 ± 1	3.524 ± 0.16
298.15 K, x2 = 0.4013	1051.67 ± 0.85	2.656 ± 0.12
298.15 K, x2 = 0.4983	1027.35 ± 0.69	2.051 ± 0.094
298.15 K, x2 = 0.599	1001.36 ± 0.53	1.602 ± 0.075
298.15 K, x2 = 0.6999	970.18 ± 0.7	1.234 ± 0.059
298.15 K, x2 = 0.802	938.33 ± 0.9	0.96 ± 0.048
298.15 K, x2 = 0.8967	908.12 ± 1.1	0.76 ± 0.039
303.15 K, x2 = 0	1141.7 ± 1.4	6.877 ± 0.28
303.15 K, x2 = 0.0977	1120.44 ± 1.3	5.251 ± 0.23
303.15 K, x2 = 0.198	1097.28 ± 1.1	4.028 ± 0.18
303.15 K, x2 = 0.2987	1072.53 ± 0.99	3.109 ± 0.14
303.15 K, x2 = 0.4013	1046.95 ± 0.82	2.376 ± 0.11
303.15 K, x2 = 0.4983	1022.6 ± 0.66	1.858 ± 0.086
303.15 K, x2 = 0.599	996.29 ± 0.54	1.456 ± 0.069
303.15 K, x2 = 0.6999	965.22 ± 0.73	1.13 ± 0.055
303.15 K, x2 = 0.802	933.24 ± 0.93	0.884 ± 0.044
303.15 K, x2 = 0.8967	902.85 ± 1.1	0.706 ± 0.037
313.15 K, x2 = 0	1132.96 ± 1.4	5.214 ± 0.22
313.15 K, x2 = 0.0977	1111.6 ± 1.2	4.059 ± 0.18
313.15 K, x2 = 0.198	1088.31 ± 1.1	3.174 ± 0.14
313.15 K, x2 = 0.2987	1063.41 ± 0.93	2.492 ± 0.11
313.15 K, x2 = 0.4013	1037.61 ± 0.76	1.946 ± 0.09
313.15 K, x2 = 0.4983	1013.15 ± 0.61	1.538 ± 0.072
313.15 K, x2 = 0.599	986.09 ± 0.61	1.217 ± 0.059
313.15 K, x2 = 0.6999	955.16 ± 0.79	0.962 ± 0.048
313.15 K, x2 = 0.802	922.97 ± 0.99	0.759 ± 0.039
313.15 K, x2 = 0.8967	892.39 ± 1.2	0.613 ± 0.033
323.15 K, x2 = 0	1124.33 ± 1.3	4.08 ± 0.18
323.15 K, x2 = 0.0977	1102.85 ± 1.2	3.23 ± 0.14
323.15 K, x2 = 0.198	1079.44 ± 1	2.568 ± 0.12
323.15 K, x2 = 0.2987	1054.39 ± 0.87	2.046 ± 0.094
323.15 K, x2 = 0.4013	1028.33 ± 0.71	1.614 ± 0.076
323.15 K, x2 = 0.4983	1003.64 ± 0.55	1.296 ± 0.062
323.15 K, x2 = 0.599	975.97 ± 0.67	1.037 ± 0.051
323.15 K, x2 = 0.6999	945.02 ± 0.86	0.826 ± 0.042
323.15 K, x2 = 0.802	912.7 ± 1.1	0.66 ± 0.035
323.15 K, x2 = 0.8967	881.97 ± 1.2	0.538 ± 0.029
333.15 K, x2 = 0	1115.63 ± 1.3	3.284 ± 0.15
333.15 K, x2 = 0.0977	1094.03 ± 1.1	2.636 ± 0.12
333.15 K, x2 = 0.198	1070.44 ± 0.98	2.124 ± 0.097
333.15 K, x2 = 0.2987	1045.28 ± 0.82	1.715 ± 0.08
333.15 K, x2 = 0.4013	1018.97 ± 0.65	1.371 ± 0.065
333.15 K, x2 = 0.4983	993.97 ± 0.56	1.11 ± 0.054
333.15 K, x2 = 0.599	966 ± 0.73	0.898 ± 0.045
333.15 K, x2 = 0.6999	934.99 ± 0.92	0.721 ± 0.037
333.15 K, x2 = 0.802	902.37 ± 1.1	0.54 ± 0.03
333.15 K, x2 = 0.8967	871.42 ± 1.3	0.479 ± 0.027
343.15 K, x2 = 0	1107.96 ± 1.2	2.707 ± 0.12
343.15 K, x2 = 0.0977	1086.23 ± 1.1	2.201 ± 0.1
343.15 K, x2 = 0.198	1062.45 ± 0.93	1.798 ± 0.083
343.15 K, x2 = 0.2987	1037.1 ± 0.77	1.466 ± 0.069
343.15 K, x2 = 0.4013	1010.54 ± 0.59	1.183 ± 0.057
343.15 K, x2 = 0.4983	985.32 ± 0.61	0.966 ± 0.048
343.15 K, x2 = 0.599	956.77 ± 0.79	0.787 ± 0.04
343.15 K, x2 = 0.6999	925.78 ± 0.98	0.637 ± 0.034
343.15 K, x2 = 0.802	892.86 ± 1.2	0.518 ± 0.029
343.15 K, x2 = 0.8967	861.54 ± 1.4	0.428 ± 0.025

Cc1ccccc1 [toluene]
[2]
Conditions	mass density [kg/m3]	viscosity [mPa·s]
298.15 K	861.65 ± 1.4	0.553 ± 0.03
303.15 K	857.01 ± 1.4	0.522 ± 0.029
313.15 K	847.63 ± 1.5	0.467 ± 0.026
323.15 K	838.23 ± 1.5	0.421 ± 0.024
333.15 K	828.71 ± 1.6	0.381 ± 0.023
343.15 K	819.86 ± 1.6	0.349 ± 0.021
353.15 K	809.68 ± 1.7	0.321 ± 0.02
